System: 317291-083-R-J1-PDC complex spheroid growth
Test: Anticancer human tumor 317291-083-R-J1-PDC patient-derived soft tissue sarcoma cell line growth inhibition [Asc]
Details: for IC50: curve of first compound; for viability, T/C: stronger effect = lower value
Method in brief: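 Stromal components (HUVEC and hMSC) are co-assembled with the cancer cells into multicellular spheroids. Drugs are then added singly or paired, at concentrations falling by half-log increments from a clinically achievable maximum, capped at 10 microM without known Cmax.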
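Further: compound exposure lasted seven days after spheroids formed for three days.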
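Wherever viability, T/C is given: 100% = DMSO vehicle control wells.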

- IC50 (second compound 0.00316 µM): 79.4 nM
- IC50 (second compound 0.01 µM): 68.4 nM
- IC50 (second compound 0.0316 µM): 68.7 nM
- IC50 (second compound 0.1 µM): 5.31 nM
- IC50 (second compound 0.316 µM): 43 nM
- IC50 (second compound 1 µM): < 3.16 nM
SMILES: COc1c(OCCCN2CCOCC2)ccc2c3n(c(=NC(=O)c4cnc(N)nc4)nc12)CCN3 + CNC(C)C(=O)NC1CN(S(=O)(=O)c2cccc(S(=O)(=O)N3CCC4CCC(C(=O)NC(c5ccccc5)c5ccccc5)N4C(=O)C(NC(=O)C(C)NC)C3)c2)CCC2CCC(C(=O)NC(c3ccccc3)c3ccccc3)N2C1=O
- viability, T/C (second compound 0.00316 µM, first compound 0.00316 µM): 80.1%
- viability, T/C (second compound 0.00316 µM, first compound 0.01 µM): 81%
- viability, T/C (second compound 0.00316 µM, first compound 0.0316 µM): 68.1%
- viability, T/C (second compound 0.00316 µM, first compound 0.1 µM): 43.5%
- viability, T/C (second compound 0.00316 µM, first compound 0.316 µM): 28.3%
- viability, T/C (second compound 0.00316 µM, first compound 1 µM): 15.5%
- viability, T/C (second compound 0.01 µM, first compound 0.00316 µM): 72.6%
- viability, T/C (second compound 0.01 µM, first compound 0.01 µM): 103%
- viability, T/C (second compound 0.01 µM, first compound 0.0316 µM): 61.4%
- viability, T/C (second compound 0.01 µM, first compound 0.1 µM): 42.6%
- viability, T/C (second compound 0.01 µM, first compound 0.316 µM): 22.7%
- viability, T/C (second compound 0.01 µM, first compound 1 µM): 13.3%
- viability, T/C (second compound 0.0316 µM, first compound 0.00316 µM): 76.5%
- viability, T/C (second compound 0.0316 µM, first compound 0.01 µM): 73.2%
- viability, T/C (second compound 0.0316 µM, first compound 0.0316 µM): 77%
- viability, T/C (second compound 0.0316 µM, first compound 0.1 µM): 37.7%
- viability, T/C (second compound 0.0316 µM, first compound 0.316 µM): 18.2%
- viability, T/C (second compound 0.0316 µM, first compound 1 µM): 11%
- viability, T/C (second compound 0.1 µM, first compound 0.00316 µM): 53.8%
- viability, T/C (second compound 0.1 µM, first compound 0.01 µM): 44.8%
- viability, T/C (second compound 0.1 µM, first compound 0.0316 µM): 38.9%
- viability, T/C (second compound 0.1 µM, first compound 0.1 µM): 34.2%
- viability, T/C (second compound 0.1 µM, first compound 0.316 µM): 16.9%
- viability, T/C (second compound 0.1 µM, first compound 1 µM): 10.7%
- viability, T/C (second compound 0.316 µM, first compound 0.00316 µM): 56%
- viability, T/C (second compound 0.316 µM, first compound 0.01 µM): 44.4%
- viability, T/C (second compound 0.316 µM, first compound 0.0316 µM): 68.8%
- viability, T/C (second compound 0.316 µM, first compound 0.1 µM): 32.3%
- viability, T/C (second compound 0.316 µM, first compound 0.316 µM): 13.8%
- viability, T/C (second compound 0.316 µM, first compound 1 µM): 11%
- viability, T/C (second compound 1 µM, first compound 0.00316 µM): 33.2%
- viability, T/C (second compound 1 µM, first compound 0.01 µM): 36%
- viability, T/C (second compound 1 µM, first compound 0.0316 µM): 27.2%
- viability, T/C (second compound 1 µM, first compound 0.1 µM): 19.2%
- viability, T/C (second compound 1 µM, first compound 0.316 µM): 9.14%
- viability, T/C (second compound 1 µM, first compound 1 µM): 5.37%

From PubChem BioAssay AID1963427 (Molecular Pharmacology Branch, DTP, NCI, 2024)
